These results are taken from patent US8158792B2, “Spiropiperidines for use as tryptase inhibitors” (Janssen Pharmaceutica N.V., priority 2007, dated 2012).

The IC50 is the concentration that gives 50% inhibition. A high value points to weaker potency in that assay.

This experiment concerns the target human lung tryptase. The experiment in a line: β-Tryptase In-Vitro Enzyme Assay. In kind it is biochemical. The conditions noted are these: human lung tryptase 1 nM, substrate H-D-HHT-Ala-Arg-pNa 500 μM, pH 7.4, room temperature. On the procedure: The β-tryptase assay was conducted with human lung tryptase (Cortex Biochem #CP3033) in an aqueous buffer (10 mM Tris, 10 mM Hepes, 150 mM NaCl, 0.1% PEG 8000, pH 7.4) using the chromogenic substrate H-D-HHT-Ala-Arg-pNa. […] Percent inhibition was calculated by comparing the initial reaction velocity of samples without inhibitor to those with inhibitor. The initial reaction velocities were analyzed using Microsoft Excel.
Compound `NCc1ccc2c(c1)C1(CCN(C(=O)c3cccc(C(=O)c4ccccc4)c3)CC1)CO2` [Cpd 4, 1-(3-benzoyl-phenyl)carbonyl-5′-aminomethyl-spiro[piperidine-4,3′-(2H)-benzo[b]furan]] yielded an IC50 of 750 nM. The result for `NCc1ccc2c(c1)C1(CCN(C(=O)c3c[nH]c4ccccc34)CC1)CO2` [Cpd 236, 1-indol-3-ylcarbonyl-5′-aminomethyl-spiro[piperidine-4,3′-(2H)-benzo[b]furan]] reads 750 nM; that for `NCc1ccc2c(c1)C1(CCN(C(=O)c3cncc(-c4cccs4)c3)CC1)CO2` [Cpd 143, 1-(5-thien-2-yl-pyridin-3-yl)carbonyl-5′-aminomethyl-spiro[piperidine-4,3′-(2H)-benzo[b]furan]], 56 nM. The result for `C[SH]1C=C(C(F)(F)F)C2=C1NN(C(=O)N1CCC3(CC1)COc1ccc(CN)cc13)C2` (centres unmarked) [Cpd 276, 1-(4-trifluoromethyl-6-methyl-1H-thieno[2,3-c]pyrazol-2-yl)carbonyl-5′-aminomethyl-spiro[piperidine-4,3′-(2H)-benzo[b]furan]] reads 150 nM; that for `Cc1occc1C(=O)NCc1ccc(C(=O)N2CCC3(CC2)COc2ccc(CN)cc23)o1` [Cpd 220, 1-[5-(2-methyl-furan-3-yl-carbonylaminomethyl)-furan-2-yl]carbonyl-5′-aminomethyl-spiro[piperidine-4,3′-(2H)-benzo[b]furan]], 690 nM. The result for `CCOCCOc1cccc(/C=C/C(=O)N2CCC3(CC2)COc2ccc(CN)cc23)c1` [Cpd 302, (E)-1-[3-(2-ethoxy-ethoxy)-phenylethenyl]carbonyl-5′-aminomethyl-spiro[piperidine-4,3′-(2H)-benzo[b]furan]] reads 750 nM. Compound `Cc1ccc(C(=O)N2CCC3(CC2)COc2ccc(CN)cc23)cc1C` [Cpd 24, 1-(3,4-dimethyl-phenyl)carbonyl-5′-aminomethyl-spiro[piperidine-4,3′-(2H)-benzo[b]furan]] returned an IC50 of 150 nM. The result for `CN(C)C(=N)c1ccc2c(c1)C1(CCN(C(=O)c3ccc(C#Cc4ccccc4)o3)CC1)CO2` [Cpd 313, 1-(5-phenylethynyl-furan-2-yl)carbonyl-5′-[dimethylamino(imino)methyl]-spiro[piperidine-4,3′-(2H)-benzo[b]furan]] reads 140 nM; that for `NCc1ccc2c(c1)C1(CCN(C(=O)c3cc4sccc4s3)CC1)CO2` [Cpd 204, 1-thieno[3,2-b]thien-2-ylcarbonyl-5′-aminomethyl-spiro[piperidine-4,3′-(2H)-benzo[b]furan]], 89 nM; that for `NCc1ccc2c(c1)C1(CCN(C(=O)c3cccc(OC(F)(F)F)c3)CC1)CO2` [Cpd 60, 1-(3-trifluoromethoxy-phenyl)carbonyl-5′-aminomethyl-spiro[piperidine-4,3′-(2H)-benzo[b]furan]], 2100 nM. To `NCc1ccc2c(c1)C1(CCN(C(=O)c3ccc(F)cc3)CC1)CO2` [Cpd 43, 1-(4-fluoro-phenyl)carbonyl-5′-aminomethyl-spiro[piperidine-4,3′-(2H)-benzo[b]furan]] belongs 250 nM.

`NCc1ccc2c(c1)C1(CCN(C(=O)/C=C/c3cccc(OCCc4ccccc4)c3)CC1)CO2` [Cpd 294, (E)-1-(3-phenethoxy-phenylethenyl)carbonyl-5′-aminomethyl-spiro[piperidine-4,3′-(2H)-benzo[b]furan]] yielded an IC50 of 97 nM. For `COc1ccc(-c2ccc(C(=O)N3CCC4(CC3)COc3ccc(CN)cc34)o2)cc1` [Cpd 132, 1-[5-(4-methoxy-phenyl)-furan-2-yl]carbonyl-5′-aminomethyl-spiro[piperidine-4,3′-(2H)-benzo[b]furan]], the IC50 was found to be 26 nM.

As for `Cc1cc(C(=O)N2CCC3(CC2)COc2ccc(CN)cc23)ccc1Cl` [Cpd 25, 1-(3-methyl-4-chloro-phenyl)carbonyl-5′-aminomethyl-spiro[piperidine-4,3′-(2H)-benzo[b]furan]], it took 140 nM to reach half-maximal inhibition (IC50). For `CCCOc1sc(C(=O)N2CCC3(CC2)CN(S(=O)(=O)O)c2ccc(CN)cc23)c(C)c1Br` [Cpd 346, 1-(3-methyl-4-bromo-5-propoxy-thien-2-yl)carbonyl-1′-hydroxysulfonyl-5′-aminomethyl-spiro[piperidine-4,3′-(2H)-indole]], the IC50 stood at 40 nM. `NCc1ccc2c(c1)C1(CCN(C(=O)C#Cc3ccccc3)CC1)CO2` [Cpd 108, 1-(phenylethynyl)carbonyl-5′-aminomethyl-spiro[piperidine-4,3′-(2H)-benzo[b]furan]] registered an IC50 of 250 nM. To `Cc1cc(OCc2ccc(C(=O)N3CCC4(CC3)COc3ccc(CN)cc34)o2)ccc1Cl` [Cpd 139, 1-[5-(3-methyl-4-chloro-phenoxymethyl)-furan-2-yl]carbonyl-5′-aminomethyl-spiro[piperidine-4,3′-(2H)-benzo[b]furan]] belongs 87 nM; to `NCc1ccc2c(c1)C1(CCN(C(=O)Cc3ccc(F)cc3)CC1)CO2` [Cpd 90, 1-(4-fluoro-benzyl)carbonyl-5′-aminomethyl-spiro[piperidine-4,3′-(2H)-benzo[b]furan]], 980 nM. In turn, `CCSc1sc(C(=O)N2CCC3(CC2)COc2ccc(CN)cc23)c2c1C(=O)CC(C)(C)C2` [Cpd 223, 1-(3-ethylthio-4-oxo-6,6-dimethyl-6,7-dihydro-5H-benzo[c]thien-1-yl)carbonyl-5′-aminomethyl-spiro[piperidine-4,3′-(2H)-benzo[b]furan]] gave an IC50 of 21 nM.

Consider `NCc1ccc2c(c1)C1(CCN(C(=O)c3ccc(CSCc4ccccc4)o3)CC1)CO2` [Cpd 147, 1-[5-(benzylthiomethyl)-furan-2-yl]carbonyl-5′-aminomethyl-spiro[piperidine-4,3′-(2H)-benzo[b]furan]], for which the IC50 came to 66 nM. To `COc1ccc(-c2cccc(C(=O)N3CCC4(CC3)COc3ccc(CN)cc34)c2)cc1` [Cpd 64, 1-[3-(4-methoxy-phenyl)-phenyl]carbonyl-5′-aminomethyl-spiro[piperidine-4,3′-(2H)-benzo[b]furan]] belongs 95 nM; to `NCc1ccc2c(c1)C1(CCN(C(=O)c3cc(-c4ccccc4)c(C(F)(F)F)s3)CC1)CO2` [Cpd 295, 1-(4-phenyl-5-trifluoromethyl-thien-2-yl)carbonyl-5′-aminomethyl-spiro[piperidine-4,3′-(2H)-benzo[b]furan]], 42 nM.

The compound `COCCOc1cccc(/C=C/C(=O)N2CCC3(CC2)COc2ccc(CN)cc23)c1` [Cpd 291, (E)-1-[3-(2-methoxy-ethoxy)-phenylethenyl]carbonyl-5′-aminomethyl-spiro[piperidine-4,3′-(2H)-benzo[b]furan]] yielded an IC50 of 400 nM. To `NCc1ccc2c(c1)C1(CCN(C(=O)/C=C/c3ccc4ccccc4c3)CC1)CO2` [Cpd 113, (E)-1-(naphthalene-2-ylethenyl)carbonyl-5′-aminomethyl-spiro[piperidine-4,3′-(2H)-benzo[b]furan]] belongs 130 nM; to `NCc1ccc2c(c1)C1(CCN(C(=O)C(c3ccccc3)c3ccccc3)CC1)CO2` [Cpd 290, 1-(1-oxo-2,2-diphenyl-ethyl)-5′-aminomethyl-spiro[piperidine-4,3′-(2H)-benzo[b]furan]], 160 nM.

The compound `NCc1ccc2c(c1)C1(CCN(C(=O)Cc3ccc(I)cc3)CC1)CO2` [Cpd 96, 1-(4-iodo-benzyl)carbonyl-5′-aminomethyl-spiro[piperidine-4,3′-(2H)-benzo[b]furan]] displayed a half-maximal inhibitory concentration (IC50) of 450 nM. The compound `NCc1ccc2c(c1)C1(CCN(C(=O)c3cccc(Sc4ncc(Cl)cn4)c3)CC1)CO2` [Cpd 21, 1-[3-(5-chloro-pyrimidin-2-yl)thiophenyl]carbonyl-5′-aminomethyl-spiro[piperidine-4,3′-(2H)-benzo[b]furan]] showed an IC50 of 510 nM. As for `NCc1ccc2c(c1)C1(CCN(C(=O)c3ccc(C#Cc4ccccc4)o3)CC1)CN2C(=O)CS(=O)(=O)O` [Cpd 335, 1-(5-phenylethynyl-furan-2-yl)carbonyl-1′-(hydroxysulfonylmethyl)carbonyl-5′-aminomethyl-spiro[piperidine-4,3′-(2H)-indole]], the midpoint of inhibition, the IC50, lay at 20 nM.

In turn, `NCc1ccc2c(c1)C1(CCN(C(=O)c3ccc(C(=O)c4ccccc4)cc3)CC1)CO2` [Cpd 6, 1-(4-benzoyl-phenyl)carbonyl-5′-aminomethyl-spiro[piperidine-4,3′-(2H)-benzo[b]furan]] came in with an IC50 of 5800 nM. To `CSc1sc(C(=O)N2CCC3(CC2)COc2ccc(CN)cc23)c(Cl)c1S(=O)(=O)C(C)C` [Cpd 157, 1-(3-chloro-4-isopropylsulfonyl-5-methylthio-thien-2-yl)carbonyl-5′-aminomethyl-spiro[piperidine-4,3′-(2H)-benzo[b]furan]] belongs 17 nM. The result for `NCc1ccc2c(c1)C1(CCN(C(=O)/C=C/c3c(F)cccc3F)CC1)CO2` [Cpd 195, (E)-1-(2,6-difluoro-phenylethenyl)carbonyl-5′-aminomethyl-spiro[piperidine-4,3′-(2H)-benzo[b]furan]] reads 120 nM; that for `NCc1ccc2c(c1)C1(CCN(C(=O)/C=C/c3ccc(Cl)c(Cl)c3)CC1)CO2` [Cpd 116, (E)-1-(3,4-dichloro-phenylethenyl)carbonyl-5′-aminomethyl-spiro[piperidine-4,3′-(2H)-benzo[b]furan]], 290 nM.

`NCc1ccc2c(c1)C1(CCN(C(=O)/C=C/c3ccccn3)CC1)CO2` [Cpd 252, (E)-1-(pyridin-2-ylethenyl)carbonyl-5′-aminomethyl-spiro[piperidine-4,3′-(2H)-benzo[b]furan]] yielded an IC50 of 1600 nM. `NCc1ccc2c(c1)C1(CCN(C(=O)c3cccc(C(N)=O)c3)CC1)CO2` [Cpd 273, 1-(3-aminocarbonyl-phenyl)carbonyl-5′-aminomethyl-spiro[piperidine-4,3′-(2H)-benzo[b]furan]] yielded an IC50 of 1200 nM. In the case of `NCc1ccc2c(c1)C1(CCN(C(=O)c3ccc(C#Cc4cccc5ccccc45)o3)CC1)CO2` [Cpd 177, 1-(5-naphthalen-1-ylethynyl-furan-2-yl)carbonyl-5′-aminomethyl-spiro[piperidine-4,3′-(2H)-benzo[b]furan]], inhibition was half-maximal at 26 nM (IC50).
